Active and inactive are the calls of the source. The rule behind the calls is not given here.
How the values were obtained:
[1] = molecular target: T1, Catenin beta-1 (Homo sapiens) (UniProt P35222); test: Binding affinity to human beta-catenin at 1 mM by 1H-STD NMR analysis
T1 sequence (whole entry): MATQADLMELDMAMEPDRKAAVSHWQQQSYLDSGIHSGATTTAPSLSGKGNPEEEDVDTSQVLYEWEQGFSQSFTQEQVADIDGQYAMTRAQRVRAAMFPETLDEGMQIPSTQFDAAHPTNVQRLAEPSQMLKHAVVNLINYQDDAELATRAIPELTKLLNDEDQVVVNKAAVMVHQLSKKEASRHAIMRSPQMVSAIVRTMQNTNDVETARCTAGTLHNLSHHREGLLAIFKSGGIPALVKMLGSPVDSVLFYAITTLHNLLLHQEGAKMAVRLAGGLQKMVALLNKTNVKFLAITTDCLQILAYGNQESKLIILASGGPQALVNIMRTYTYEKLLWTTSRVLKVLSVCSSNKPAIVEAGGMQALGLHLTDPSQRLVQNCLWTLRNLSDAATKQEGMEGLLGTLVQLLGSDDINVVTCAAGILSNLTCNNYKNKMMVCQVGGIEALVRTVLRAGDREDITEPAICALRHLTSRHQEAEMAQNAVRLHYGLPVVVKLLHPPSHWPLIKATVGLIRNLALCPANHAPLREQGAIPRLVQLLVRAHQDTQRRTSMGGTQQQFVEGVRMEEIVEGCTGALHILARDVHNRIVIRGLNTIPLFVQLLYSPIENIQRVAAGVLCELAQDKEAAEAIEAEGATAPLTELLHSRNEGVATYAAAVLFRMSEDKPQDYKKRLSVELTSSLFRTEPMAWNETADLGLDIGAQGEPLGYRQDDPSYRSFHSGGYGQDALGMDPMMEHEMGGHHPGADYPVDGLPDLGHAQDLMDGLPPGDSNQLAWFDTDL

Galliformes = test: Binding affinity to quail lipocalin Q83 by 1H-15N HSQC-based NMR analysis
[2] = Binding affinity to quail lipocalin Q83 at 200 uM by tryptophan fluorescence quenching experiment; set-up: species or system Galliformes
[3] = Binding affinity to quail lipocalin Q83 assessed as first molecule binding at 2:1 compound:protein ratio by […]; set-up: species or system Galliformes
[4] = Binding affinity to quail lipocalin Q83 assessed as second molecule binding at 2:1 compound:protein ratio by […]; set-up: species or system Galliformes

Structure (SMILES)	Activity [1]	Activity (Galliformes)	Kd [2]	Kd [3]	Kd [4]
O=C1OC2(c3ccc(O)cc3Oc3cc(O)ccc32)c2ccccc21	Active	–	–	–	–
Nc1ccc(/N=N/c2ccc(S(=O)(=O)O)cc2)cc1S(=O)(=O)O	–	Active	25 µM	–	–
Cc1c(Br)cc2c(-c3ccccc3C(=O)O)c3cc(Br)c(=O)c(Br)c-3oc2c1Br	Active	–	–	–	–
COc1cc(C(=O)O)ccc1O [VANILLIC ACID]	–	Active	–	500 µM	70000 µM

Reference: ChEMBL document CHEMBL2169834, “Toward rational fragment-based lead design without 3D structures” (J Med Chem, 2012)
